From ChEMBL document CHEMBL3808331, “Functionalized N,N-Diphenylamines as Potent and Selective EPAC2 Inhibitors” (ACS Med Chem Lett, 2016)
Active and inactive are the calls of the source. The calls are words filed in the database; no cut-off is given here.

Tests used:
[1] = target: T1, Rap guanine nucleotide exchange factor 4 (Homo sapiens, UniProt Q8WZA2); assay: Inhibition of 8-NBD-cAMP binding to EPAC2 (unknown origin) by microplate reader analysis
[2] = target: T2, Rap guanine nucleotide exchange factor 3 (Homo sapiens) (UniProt O95398); assay: Inhibition of EPAC1 (unknown origin) assessed as reduction in cAMP-mediated guanine nucleotide exchange factor activity up to 100 uM in presence of C-terminal truncated Rap1B (1 to 167 residues)-BODIPY-GDP by microplate reader analysis
T2 sequence (whole entry): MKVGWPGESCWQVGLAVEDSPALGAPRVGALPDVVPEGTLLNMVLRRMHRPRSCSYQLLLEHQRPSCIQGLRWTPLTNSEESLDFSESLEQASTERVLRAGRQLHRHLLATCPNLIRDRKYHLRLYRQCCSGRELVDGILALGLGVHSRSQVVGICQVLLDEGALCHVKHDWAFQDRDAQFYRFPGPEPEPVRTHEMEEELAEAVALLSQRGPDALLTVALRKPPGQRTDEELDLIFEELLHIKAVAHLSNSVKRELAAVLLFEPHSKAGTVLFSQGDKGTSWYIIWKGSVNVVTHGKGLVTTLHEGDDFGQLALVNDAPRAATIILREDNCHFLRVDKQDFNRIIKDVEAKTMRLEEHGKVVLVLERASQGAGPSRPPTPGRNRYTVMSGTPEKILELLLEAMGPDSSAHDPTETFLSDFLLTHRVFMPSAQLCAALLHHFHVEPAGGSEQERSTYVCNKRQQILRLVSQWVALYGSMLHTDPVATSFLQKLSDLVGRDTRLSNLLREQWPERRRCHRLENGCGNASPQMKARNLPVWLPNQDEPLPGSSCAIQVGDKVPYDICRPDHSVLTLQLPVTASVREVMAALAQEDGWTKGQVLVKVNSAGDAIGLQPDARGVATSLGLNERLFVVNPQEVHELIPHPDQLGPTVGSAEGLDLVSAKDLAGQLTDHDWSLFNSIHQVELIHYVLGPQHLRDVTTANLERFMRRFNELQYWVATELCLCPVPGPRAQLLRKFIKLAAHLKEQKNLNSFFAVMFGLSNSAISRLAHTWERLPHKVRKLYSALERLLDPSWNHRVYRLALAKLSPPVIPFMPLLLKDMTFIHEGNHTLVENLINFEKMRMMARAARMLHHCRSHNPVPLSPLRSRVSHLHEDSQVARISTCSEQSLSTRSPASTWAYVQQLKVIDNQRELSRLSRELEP

[3] = target: T1, Rap guanine nucleotide exchange factor 4; assay: Inhibition of EPAC2 (unknown origin) assessed as reduction in cAMP-mediated guanine nucleotide exchange factor activity in presence of C-terminal truncated Rap1B (1 to 167 residues)-BODIPY-GDP by microplate reader analysis; details: for inhibition: concentration not given here
[4] = target: T1, Rap guanine nucleotide exchange factor 4; assay: Non-competitive inhibition of EPAC2 (unknown origin) assessed as reduction in cAMP-mediated guanine nucleotide exchange factor activity at 1 uM in presence of C-terminal truncated Rap1B (1 to 167 residues)-BODIPY-GDP
Target sequence in this assay (Q8WZA2 whole entry, looked up, the tested form may be a part): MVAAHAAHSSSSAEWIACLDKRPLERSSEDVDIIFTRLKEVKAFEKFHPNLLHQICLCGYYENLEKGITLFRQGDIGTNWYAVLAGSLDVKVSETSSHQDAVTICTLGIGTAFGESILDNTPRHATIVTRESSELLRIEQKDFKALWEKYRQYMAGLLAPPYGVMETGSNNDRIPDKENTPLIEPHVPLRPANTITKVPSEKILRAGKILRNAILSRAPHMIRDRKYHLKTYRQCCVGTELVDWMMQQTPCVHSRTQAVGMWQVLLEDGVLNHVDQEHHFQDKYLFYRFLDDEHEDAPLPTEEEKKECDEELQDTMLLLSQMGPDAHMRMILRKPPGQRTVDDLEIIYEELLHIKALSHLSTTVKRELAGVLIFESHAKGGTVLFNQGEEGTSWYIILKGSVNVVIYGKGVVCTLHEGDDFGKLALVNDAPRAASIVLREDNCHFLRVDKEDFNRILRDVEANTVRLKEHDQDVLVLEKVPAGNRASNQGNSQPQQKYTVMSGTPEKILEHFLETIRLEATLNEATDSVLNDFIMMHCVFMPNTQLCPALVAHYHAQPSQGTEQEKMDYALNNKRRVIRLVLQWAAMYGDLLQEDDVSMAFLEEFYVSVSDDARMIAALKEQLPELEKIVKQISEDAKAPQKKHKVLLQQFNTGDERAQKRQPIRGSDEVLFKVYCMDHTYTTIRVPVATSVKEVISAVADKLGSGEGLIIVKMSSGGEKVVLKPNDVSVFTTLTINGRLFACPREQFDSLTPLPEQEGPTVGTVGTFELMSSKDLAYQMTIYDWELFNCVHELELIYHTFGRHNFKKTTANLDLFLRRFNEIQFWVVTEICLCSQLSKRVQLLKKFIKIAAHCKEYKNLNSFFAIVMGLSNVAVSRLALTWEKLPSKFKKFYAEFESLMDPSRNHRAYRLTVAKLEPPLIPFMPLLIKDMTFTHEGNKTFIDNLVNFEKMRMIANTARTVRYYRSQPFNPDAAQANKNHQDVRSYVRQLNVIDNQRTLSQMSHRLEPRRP

Row | IC50 [1] [nM] | Compound | further results
1 | 1700 | Cc1cc(C)cc(Nc2c(C)cc(C)cc2C)c1 | 
2 | 500 | Cc1cc(C)c(Nc2cccc(Cl)c2C)c(C)c1 | inhibition [2]: inactive; inhibition [1]: Dose-dependent effect; inhibition ([1]; concentration not given here): 80%; IC50 [3]: 3600 nM; inhibition [3]: > 80%
3 | 700 | Cc1cc(C)c(Nc2c(C)cc(Cl)cc2Cl)c(C)c1 | 
4 | > 300000 | Cc1cc(C)c(C#Cc2cccc(Nc3c(C)cc(C)cc3C)c2)c(C)c1 | 
5 | 400 | Cc1cc(C)c(Nc2ccc(Cl)c(C(F)(F)F)c2)c(C)c1 | inhibition [2]: inactive; inhibition [1]: Dose-dependent effect; inhibition ([1]; concentration not given here): 80%; IC50 [3]: 1000 nM; inhibition [3]: > 80%; inhibition [4]: Active
6 | 600 | Cc1cc(C)c(Nc2cc(C(F)(F)F)cc(C(F)(F)F)c2)c(C)c1 | inhibition [2]: inactive; inhibition [1]: Dose-dependent effect; inhibition ([1]; concentration not given here): 60%; IC50 [3]: 1300 nM; inhibition [3]: > 80%
7 | 1000 | Cc1cc(C)c(Nc2cccc(C)c2C)c(C)c1 | 
8 |  | CC(C)(C)c1cc(C(=O)/C(C#N)=N/Nc2cccc(Cl)c2)no1 | inhibition [3]: > 80%
9 | 2900 | Cc1cc(C)c(Nc2ccc(F)c(Cl)c2)c(C)c1 | 
10 | 1800 | Cc1cc(C)c(Nc2cc(C)ccc2C)c(C)c1 | 
11 | 1400 | Cc1cc(C)c(Nc2cc(Cl)ccc2C)c(C)c1 | 
12 | 2700 | Cc1cc(C)c(Nc2c(F)cc(F)cc2F)c(C)c1 | 
13 | 46000 | Cc1cc(C)c(Nc2cccc(O)c2)c(C)c1 | 
14 | 2000 | Cc1cc(C)c(Nc2cccc(C(F)(F)F)c2)c(C)c1 | 
15 | 1100 | Cc1cc(C)c(Nc2ccc(Cl)c(Cl)c2)c(C)c1 | 
16 | 1800 | Cc1cc(C)c(Nc2ccc(C)c(Cl)c2)c(C)c1 | 

Row | IC50 [1] [nM] | Compound | further results
17 | 34000 | Cc1cc(C)c(Nc2cccc(N)c2)c(C)c1 | 
18 | 1500 | Cc1cc(C)c(Nc2cccc(Br)c2)c(C)c1 | 
19 | 5800 | Cc1cc(C)c(Nc2cccc(F)c2)c(C)c1 | 
20 | 1600 | Cc1cc(C)c(Nc2ccc(Br)cc2)c(C)c1 | 
21 | 400 | Cc1cc(C)c(Nc2c(C)cc(C)cc2C)c(C)c1 | inhibition [2]: inactive; inhibition [1]: Dose-dependent effect; inhibition ([1]; concentration not given here): 80%; IC50 [3]: 1700 nM; inhibition [3]: > 80%
22 | 5700 | Cc1cc(C)c(Nc2cc(F)cc(F)c2)c(C)c1 | 
23 | 10700 | COc1cccc(Nc2c(C)cc(C)cc2C)c1 | 
24 | 1800 | CCc1cccc(Nc2c(C)cc(C)cc2C)c1 | 
25 | 2200 | Cc1ccc(Nc2c(C)cc(C)cc2C)c(C)c1 | 
26 | 2900 | Cc1cc(C)c(Nc2cc(F)cc(Cl)c2)c(C)c1 | 
27 | 8700 | Cc1cc(C)c(Nc2ccc(F)c(F)c2)c(C)c1 | 
28 | 500 | Cc1cc(C)c(Nc2cc(Cl)cc(C(F)(F)F)c2)c(C)c1 | 
29 | 1800 | Cc1cc(C)c(Nc2ccc3c(c2)CCC3)c(C)c1 | 
30 | 3300 | Cc1cc(C)c(Nc2ccc(Cl)c(F)c2)c(C)c1 | 
31 | 1100 | Cc1cc(C)c(Nc2cc(Cl)c(Cl)c(Cl)c2)c(C)c1 | 
32 | 3000 | Cc1cc(C)c(Nc2cc(F)c(F)c(F)c2)c(C)c1 | 
